Experimental data as given in patent publication US9249129B2, “Morpholino substituted urea derivatives as mTOR inhibitors” (CELLZOME LIMITED, priority 2010, dated 2016).

Legend:
Assay in all cases: kinobeads assay with mass spectrometry detection of kinases (kinase selectivity profile)
Format in all cases: binding
kinases (kinome) [1] = target: T1, kinases (kinome) (Homo sapiens, UniProt P15056); details: BRAF (TKL), IPI00303797
T1 construct: determined in kinobeads assays with mass spectrometry detection of kinases as described previously; endogenous in cells; host or cells: cell lysate
T1 sequence (P15056 whole entry): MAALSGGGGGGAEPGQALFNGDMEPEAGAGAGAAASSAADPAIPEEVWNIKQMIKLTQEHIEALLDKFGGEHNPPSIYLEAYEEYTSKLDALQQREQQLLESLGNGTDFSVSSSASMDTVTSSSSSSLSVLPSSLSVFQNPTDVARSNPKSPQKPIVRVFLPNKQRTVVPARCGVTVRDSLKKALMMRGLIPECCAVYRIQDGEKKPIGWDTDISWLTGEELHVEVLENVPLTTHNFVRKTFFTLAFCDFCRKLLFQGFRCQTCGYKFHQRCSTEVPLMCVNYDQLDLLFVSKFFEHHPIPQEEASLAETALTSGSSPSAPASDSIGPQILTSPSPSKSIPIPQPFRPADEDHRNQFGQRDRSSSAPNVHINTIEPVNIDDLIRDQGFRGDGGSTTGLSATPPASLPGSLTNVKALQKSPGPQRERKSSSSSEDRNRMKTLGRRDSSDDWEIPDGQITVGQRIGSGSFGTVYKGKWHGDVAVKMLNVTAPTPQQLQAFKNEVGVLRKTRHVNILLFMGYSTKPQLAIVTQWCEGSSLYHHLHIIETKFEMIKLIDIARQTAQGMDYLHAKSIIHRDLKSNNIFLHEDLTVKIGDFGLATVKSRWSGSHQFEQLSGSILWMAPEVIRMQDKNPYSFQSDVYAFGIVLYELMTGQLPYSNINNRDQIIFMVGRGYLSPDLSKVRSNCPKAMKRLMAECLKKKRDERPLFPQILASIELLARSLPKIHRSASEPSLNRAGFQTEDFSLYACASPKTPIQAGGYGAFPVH
Description: (§1) The protein kinase complement of the human genome (the kinome) was described previously (Manning et al., 2002. Science 298(5600):1912-1934). Sequence accession numbers are defined by the International Protein Index (IPI) (Kersey et al., 2004. Proteomics 4(7):1985-1988).

kinases (kinome) [2] = target: T2, kinases (kinome) (Homo sapiens, UniProt P29597); details: TYK2 (TK), IPI00022353
T2 construct: determined in kinobeads assays with mass spectrometry detection of kinases as described previously; endogenous in cells; host or cells: cell lysate
T2 sequence (P29597 whole entry): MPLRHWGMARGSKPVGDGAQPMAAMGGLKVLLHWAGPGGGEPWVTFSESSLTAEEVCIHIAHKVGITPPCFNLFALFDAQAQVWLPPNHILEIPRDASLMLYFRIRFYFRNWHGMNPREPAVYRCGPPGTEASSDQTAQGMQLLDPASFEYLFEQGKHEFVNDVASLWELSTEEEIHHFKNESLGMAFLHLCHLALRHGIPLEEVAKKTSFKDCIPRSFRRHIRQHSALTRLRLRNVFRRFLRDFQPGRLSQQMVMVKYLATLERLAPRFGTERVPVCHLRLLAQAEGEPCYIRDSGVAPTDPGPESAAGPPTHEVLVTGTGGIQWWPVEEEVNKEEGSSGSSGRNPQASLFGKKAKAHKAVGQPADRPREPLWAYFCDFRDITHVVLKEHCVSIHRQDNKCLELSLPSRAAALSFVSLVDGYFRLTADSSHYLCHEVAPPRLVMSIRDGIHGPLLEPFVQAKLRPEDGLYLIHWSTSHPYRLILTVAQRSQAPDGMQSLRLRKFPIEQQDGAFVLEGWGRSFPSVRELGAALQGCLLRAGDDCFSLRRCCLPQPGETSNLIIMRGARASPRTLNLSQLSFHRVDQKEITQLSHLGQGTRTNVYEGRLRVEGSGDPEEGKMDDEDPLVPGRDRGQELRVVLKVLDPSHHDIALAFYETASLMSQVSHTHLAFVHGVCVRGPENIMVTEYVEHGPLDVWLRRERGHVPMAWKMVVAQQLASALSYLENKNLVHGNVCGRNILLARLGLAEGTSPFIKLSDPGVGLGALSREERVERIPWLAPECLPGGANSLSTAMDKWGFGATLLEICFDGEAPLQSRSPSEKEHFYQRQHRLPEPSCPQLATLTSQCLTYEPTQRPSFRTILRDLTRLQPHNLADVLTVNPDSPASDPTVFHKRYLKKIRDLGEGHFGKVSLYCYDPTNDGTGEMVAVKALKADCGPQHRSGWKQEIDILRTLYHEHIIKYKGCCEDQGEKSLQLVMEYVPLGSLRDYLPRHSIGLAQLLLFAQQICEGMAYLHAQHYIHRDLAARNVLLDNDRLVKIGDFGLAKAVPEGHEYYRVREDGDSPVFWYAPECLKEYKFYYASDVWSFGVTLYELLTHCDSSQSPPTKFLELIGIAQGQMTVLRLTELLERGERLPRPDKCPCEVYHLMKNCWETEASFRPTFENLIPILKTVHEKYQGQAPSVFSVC
Description: as §1

kinases (kinome) [3] = target: T3, kinases (kinome) (Homo sapiens, UniProt Q9UL54); details: TAO2 (STE), IPI00006283
T3 construct: determined in kinobeads assays with mass spectrometry detection of kinases as described previously; endogenous in cells; host or cells: cell lysate
T3 sequence (Q9UL54 1-1235): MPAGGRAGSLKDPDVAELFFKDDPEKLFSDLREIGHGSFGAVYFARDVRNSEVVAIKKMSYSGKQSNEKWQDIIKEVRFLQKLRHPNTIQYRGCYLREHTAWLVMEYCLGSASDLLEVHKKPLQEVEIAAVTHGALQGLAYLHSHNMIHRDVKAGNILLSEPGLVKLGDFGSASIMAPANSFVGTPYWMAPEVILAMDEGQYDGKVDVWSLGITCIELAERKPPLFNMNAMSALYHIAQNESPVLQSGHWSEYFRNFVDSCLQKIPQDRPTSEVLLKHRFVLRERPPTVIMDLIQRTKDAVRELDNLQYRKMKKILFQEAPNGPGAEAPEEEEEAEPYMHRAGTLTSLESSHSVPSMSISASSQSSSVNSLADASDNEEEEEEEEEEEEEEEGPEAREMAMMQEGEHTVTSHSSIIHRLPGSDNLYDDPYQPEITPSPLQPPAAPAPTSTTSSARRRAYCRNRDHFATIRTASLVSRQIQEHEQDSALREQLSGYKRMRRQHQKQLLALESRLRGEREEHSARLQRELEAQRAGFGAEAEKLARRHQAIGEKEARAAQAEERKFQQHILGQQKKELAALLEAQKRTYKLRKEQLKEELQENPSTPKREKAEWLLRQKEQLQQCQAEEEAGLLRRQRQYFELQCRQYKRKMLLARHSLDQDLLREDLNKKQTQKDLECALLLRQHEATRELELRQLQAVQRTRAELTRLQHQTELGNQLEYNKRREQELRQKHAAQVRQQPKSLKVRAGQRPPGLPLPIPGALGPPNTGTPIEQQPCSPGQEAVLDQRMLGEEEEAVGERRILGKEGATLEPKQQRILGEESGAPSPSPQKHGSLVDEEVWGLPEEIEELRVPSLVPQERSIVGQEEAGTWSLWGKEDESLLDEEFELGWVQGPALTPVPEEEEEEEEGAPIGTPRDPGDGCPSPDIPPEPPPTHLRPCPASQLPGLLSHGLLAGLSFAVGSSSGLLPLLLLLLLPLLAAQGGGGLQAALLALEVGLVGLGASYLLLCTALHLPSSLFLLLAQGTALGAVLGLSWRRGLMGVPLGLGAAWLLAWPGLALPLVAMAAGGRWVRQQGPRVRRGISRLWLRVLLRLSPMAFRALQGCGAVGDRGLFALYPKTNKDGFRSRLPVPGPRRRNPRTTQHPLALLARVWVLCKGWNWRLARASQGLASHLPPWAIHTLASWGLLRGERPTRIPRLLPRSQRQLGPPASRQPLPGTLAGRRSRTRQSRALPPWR
Description: as §1

kinases (kinome) [4] = target: T4, kinases (kinome) (Homo sapiens, UniProt P48729); details: CK1a (CK1), IPI00448798
T4 construct: determined in kinobeads assays with mass spectrometry detection of kinases as described previously; endogenous in cells; host or cells: cell lysate
T4 sequence (P48729 whole entry): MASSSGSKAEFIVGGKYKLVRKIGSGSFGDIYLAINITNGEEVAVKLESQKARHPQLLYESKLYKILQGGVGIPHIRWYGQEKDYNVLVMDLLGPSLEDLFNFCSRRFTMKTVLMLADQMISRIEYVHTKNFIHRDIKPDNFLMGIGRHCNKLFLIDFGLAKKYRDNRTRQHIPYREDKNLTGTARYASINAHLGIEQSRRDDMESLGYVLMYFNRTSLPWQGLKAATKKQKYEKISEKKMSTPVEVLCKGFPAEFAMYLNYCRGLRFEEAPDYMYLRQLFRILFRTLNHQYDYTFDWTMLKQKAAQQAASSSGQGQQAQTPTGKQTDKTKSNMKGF
Description: as §1

kinases (kinome) [5] = target: T5, kinases (kinome) (Homo sapiens, UniProt Q13043); details: MST1 (STE), IPI00011488
T5 construct: determined in kinobeads assays with mass spectrometry detection of kinases as described previously; endogenous in cells; host or cells: cell lysate
T5 sequence (Q13043 1-487): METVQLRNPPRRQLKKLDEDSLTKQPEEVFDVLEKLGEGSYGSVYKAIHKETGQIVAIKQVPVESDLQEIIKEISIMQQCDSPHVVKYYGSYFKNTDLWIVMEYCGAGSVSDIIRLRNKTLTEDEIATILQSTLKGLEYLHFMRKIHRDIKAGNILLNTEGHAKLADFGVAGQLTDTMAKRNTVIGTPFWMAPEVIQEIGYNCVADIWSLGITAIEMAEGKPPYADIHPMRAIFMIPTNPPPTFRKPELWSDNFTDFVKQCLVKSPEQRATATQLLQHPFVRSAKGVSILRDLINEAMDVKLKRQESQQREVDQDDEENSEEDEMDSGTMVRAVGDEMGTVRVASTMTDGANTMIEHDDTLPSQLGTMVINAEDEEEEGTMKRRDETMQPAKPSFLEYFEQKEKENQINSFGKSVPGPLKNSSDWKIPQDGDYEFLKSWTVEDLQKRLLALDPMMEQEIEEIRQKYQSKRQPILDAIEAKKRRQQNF
Description: as §1

kinases (kinome) [6] = target: T6, kinases (kinome) (Homo sapiens, UniProt Q6PHR2); details: ULK3 (Other), IPI00910978
T6 construct: determined in kinobeads assays with mass spectrometry detection of kinases as described previously; endogenous in cells; host or cells: cell lysate
T6 sequence (Q6PHR2 1-472): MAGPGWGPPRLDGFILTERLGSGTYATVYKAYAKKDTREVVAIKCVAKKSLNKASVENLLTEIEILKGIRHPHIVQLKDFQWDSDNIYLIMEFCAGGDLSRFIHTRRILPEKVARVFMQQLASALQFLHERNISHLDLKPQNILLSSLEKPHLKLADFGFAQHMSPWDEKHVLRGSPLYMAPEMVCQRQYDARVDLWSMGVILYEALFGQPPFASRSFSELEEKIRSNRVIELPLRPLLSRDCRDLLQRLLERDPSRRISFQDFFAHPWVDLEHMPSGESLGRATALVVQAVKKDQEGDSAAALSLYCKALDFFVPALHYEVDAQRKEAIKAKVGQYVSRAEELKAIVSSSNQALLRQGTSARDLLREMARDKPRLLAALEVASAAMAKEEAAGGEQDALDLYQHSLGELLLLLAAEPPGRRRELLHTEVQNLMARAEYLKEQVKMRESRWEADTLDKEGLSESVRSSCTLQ
Description: as §1

kinases (kinome) [7] = target: kinases (kinome) (Homo sapiens, UniProt Q15418); details: RSK3 (AGC), IPI00477982
Chain of kinases (kinome) (Homo sapiens, UniProt Q15418) (Q15418 whole entry): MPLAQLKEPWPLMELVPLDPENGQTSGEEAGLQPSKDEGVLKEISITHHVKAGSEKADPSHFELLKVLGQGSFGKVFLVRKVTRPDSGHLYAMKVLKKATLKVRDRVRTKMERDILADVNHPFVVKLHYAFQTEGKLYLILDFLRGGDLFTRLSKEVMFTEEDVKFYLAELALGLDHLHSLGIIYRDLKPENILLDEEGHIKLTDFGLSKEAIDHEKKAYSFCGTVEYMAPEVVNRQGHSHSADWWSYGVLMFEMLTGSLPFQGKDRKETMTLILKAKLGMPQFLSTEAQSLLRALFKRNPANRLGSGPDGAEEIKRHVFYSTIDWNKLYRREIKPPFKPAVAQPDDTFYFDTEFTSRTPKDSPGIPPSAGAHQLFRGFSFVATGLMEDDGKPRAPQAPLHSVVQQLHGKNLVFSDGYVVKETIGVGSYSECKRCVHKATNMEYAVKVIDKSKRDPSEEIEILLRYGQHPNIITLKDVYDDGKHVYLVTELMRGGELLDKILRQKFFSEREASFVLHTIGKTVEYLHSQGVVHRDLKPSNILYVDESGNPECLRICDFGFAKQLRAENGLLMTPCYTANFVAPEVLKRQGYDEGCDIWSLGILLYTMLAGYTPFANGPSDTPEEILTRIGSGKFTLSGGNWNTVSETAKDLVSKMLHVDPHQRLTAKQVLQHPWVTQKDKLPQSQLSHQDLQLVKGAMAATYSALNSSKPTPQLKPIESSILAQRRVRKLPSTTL
Description: as §1

kinases (kinome) [8] = target: T7, kinases (kinome) (Homo sapiens, UniProt P27448); details: MARK3 (CAMK), IPI00183118
T7 construct: determined in kinobeads assays with mass spectrometry detection of kinases as described previously; endogenous in cells; host or cells: cell lysate
T7 sequence (P27448 whole entry): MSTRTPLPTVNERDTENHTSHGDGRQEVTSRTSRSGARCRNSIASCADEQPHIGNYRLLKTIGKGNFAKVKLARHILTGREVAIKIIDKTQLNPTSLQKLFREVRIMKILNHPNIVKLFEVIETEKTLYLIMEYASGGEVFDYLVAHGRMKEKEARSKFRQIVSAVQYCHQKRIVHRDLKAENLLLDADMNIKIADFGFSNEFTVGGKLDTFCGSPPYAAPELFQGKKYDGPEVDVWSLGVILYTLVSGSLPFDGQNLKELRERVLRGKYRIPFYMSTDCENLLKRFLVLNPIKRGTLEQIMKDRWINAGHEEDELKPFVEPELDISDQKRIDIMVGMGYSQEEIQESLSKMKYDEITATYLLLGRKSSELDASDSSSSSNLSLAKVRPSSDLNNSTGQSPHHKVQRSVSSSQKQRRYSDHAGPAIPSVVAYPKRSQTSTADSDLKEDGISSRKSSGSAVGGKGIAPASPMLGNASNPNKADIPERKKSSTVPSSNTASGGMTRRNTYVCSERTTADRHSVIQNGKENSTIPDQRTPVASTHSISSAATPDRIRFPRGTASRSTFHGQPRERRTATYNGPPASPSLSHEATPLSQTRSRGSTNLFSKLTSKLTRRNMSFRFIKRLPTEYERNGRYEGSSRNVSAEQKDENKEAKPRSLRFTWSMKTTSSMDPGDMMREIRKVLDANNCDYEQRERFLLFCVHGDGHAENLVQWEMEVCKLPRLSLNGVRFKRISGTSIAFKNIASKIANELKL
Description: as §1

kinases (kinome) [9] = target: T8, kinases (kinome) (Homo sapiens, UniProt O60885); details: BRD4 (Atypical), IPI00440727
T8 construct: determined in kinobeads assays with mass spectrometry detection of kinases as described previously; endogenous in cells; host or cells: cell lysate
Description: as §1

kinases (kinome) [10] = target: T9, kinases (kinome) (Homo sapiens, UniProt P51451); details: BLK (TK), IPI00554756
T9 construct: determined in kinobeads assays with mass spectrometry detection of kinases as described previously; endogenous in cells; host or cells: cell lysate
T9 sequence (P51451 whole entry): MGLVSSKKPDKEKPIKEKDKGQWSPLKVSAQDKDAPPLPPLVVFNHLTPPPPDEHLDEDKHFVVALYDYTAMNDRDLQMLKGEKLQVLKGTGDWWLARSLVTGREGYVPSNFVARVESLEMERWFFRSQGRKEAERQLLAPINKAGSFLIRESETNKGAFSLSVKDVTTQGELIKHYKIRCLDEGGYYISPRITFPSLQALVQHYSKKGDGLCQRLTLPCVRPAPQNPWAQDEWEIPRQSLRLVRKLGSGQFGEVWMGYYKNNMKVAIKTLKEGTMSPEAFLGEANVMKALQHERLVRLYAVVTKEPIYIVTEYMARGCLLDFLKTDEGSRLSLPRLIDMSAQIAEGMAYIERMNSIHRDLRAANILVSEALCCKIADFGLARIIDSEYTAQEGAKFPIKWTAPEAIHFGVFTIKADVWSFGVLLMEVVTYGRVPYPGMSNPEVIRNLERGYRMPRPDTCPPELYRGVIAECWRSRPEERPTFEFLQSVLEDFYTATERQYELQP
Description: as §1

SMILES	IC50 (kinases (kinome) [1]) [µM]	IC50 (kinases (kinome) [2]) [µM]	IC50 (kinases (kinome) [3]) [µM]	IC50 (kinases (kinome) [4]) [µM]	IC50 (kinases (kinome) [5]) [µM]	IC50 (kinases (kinome) [6]) [µM]	IC50 (kinases (kinome) [7]) [µM]	IC50 (kinases (kinome) [8]) [µM]	IC50 (kinases (kinome) [9]) [µM]	IC50 (kinases (kinome) [10]) [µM]
C[C@H]1COCCN1c1nc(-c2ccc(NC(=O)NC3CC3)cc2)cc(-c2cc(F)ccc2S(C)(=O)=O)n1 [Example 40, (S)-1-cyclopropyl-3-(4-(6-(5-fluoro-2-(methylsulfonyl)phenyl)-2-(3-methylmorpholino)pyrimidin-4-yl)phenyl)urea]	> 10	> 10	> 10	> 10	> 10	> 10	> 10	> 10	> 10	> 10
C[C@H]1COCCN1c1cc(-c2ccccc2S(C)(=O)=O)nc(-c2ccc(NC(=O)NC3CC3)cc2)n1 [Example 6, (S)-1-cyclopropyl-3-(4-(4-(3-methylmorpholino)-6-(2-(methylsulfonyl)phenyl)pyrimidin-2-yl)phenyl)urea]	> 10	> 10	> 10	> 10	> 10	> 10	> 10	> 10	> 10	> 10
C[C@H]1COCCN1c1nc(-c2ccc(NC(=O)N[C@H]3CCC[C@@H]3O)cc2)cc(-c2cc(F)ccc2S(C)(=O)=O)n1 [Example 76, 1-(4-(6-(5-fluoro-2-(methylsulfonyl)phenyl)-2-((S)-3-methylmorpholino)pyrimidin-4-yl)phenyl)-3-((1S,2S)-2-hydroxycyclopentyl)urea]	> 10	> 10	> 10	> 10	> 10	> 10	> 10	> 10	> 10	> 10
C[C@H]1COCCN1c1cc(-c2ccccn2)nc(-c2ccc(NC(=O)NCCO)cc2)n1 [Example 43, (S)-1-(2-hydroxyethyl)-3-(4-(4-(3-methylmorpholino)-6-(pyridin-2-yl)pyrimidin-2-yl)phenyl)urea]	> 10	> 10	> 10	> 10	> 10	> 10	> 10	> 10	> 10	> 10

The remaining lines, values ahead:

IC50 (kinases (kinome) [1]) [µM]	IC50 (kinases (kinome) [2]) [µM]	IC50 (kinases (kinome) [3]) [µM]	IC50 (kinases (kinome) [4]) [µM]	IC50 (kinases (kinome) [5]) [µM]	IC50 (kinases (kinome) [6]) [µM]	IC50 (kinases (kinome) [7]) [µM]	IC50 (kinases (kinome) [8]) [µM]	IC50 (kinases (kinome) [9]) [µM]	IC50 (kinases (kinome) [10]) [µM]	SMILES
> 10	> 10	> 10	> 10	> 10	> 10	> 10	> 10	> 10	> 10	CCNC(=O)Nc1ccc(-c2cc(-c3ccccc3C#N)nc(N3CCOC[C@@H]3C)n2)cc1 [Example 8, (S)-1-(4-(6-(2-cyanophenyl)-2-(3-methylmorpholino)pyrimidin-4-yl)phenyl)-3-ethylurea]
> 10	> 10	> 10	> 10	> 10	> 10	> 10	> 10	> 10	> 10	C[C@H]1COCCN1c1nc(-c2ccc(NC(=O)NC3CC3)cc2)cc(-c2cccnc2S(C)(=O)=O)n1 [Example 46, (S)-1-cyclopropyl-3-(4-(2-(3-methylmorpholino)-6-(2-(methylsulfonyl)pyridin-3-yl)pyrimidin-4-yl)phenyl)urea]
> 10	> 10	> 10	> 10	> 10	> 10	> 10	> 10	> 10	> 10	C[C@H]1COCCN1c1nc(-c2ccc(NC(=O)NC3CC3)cc2)cc(-c2ccccc2S(C)(=O)=O)n1 [Example 4, (S)-1-cyclopropyl-3-(4-(2-(3-methylmorpholino)-6-(2-(methylsulfonyl)phenyl)pyrimidin-4-yl)phenyl)urea]
